This is an account of results in patent US20260232817A1, “Activatable Drug Conjugates and Therapeutic Applications Thereof” (California Institute of Technology, priority 2023, published 2026).

Series [1] relates to total elastin in porcine tissue. Put plainly: CML modification levels of total elastin in porcine tissue. The settings on record: MB PDT vs untreated samples and pentagalloyl glucose; less than glutaraldehyde.
The test system of series [2] is aortic aneurysm cross-sections. The series can be described thus: Histology and IHC staining of aneurysm cross-sections after MB PDT at AAA induction. The format is in vivo, mice. The source says:
The formation and progression of AAA can be characterized by the degradation of the extracellular matrix (ECM) and the concurrent infiltration of immune cells into the aortic wall. To assess if MB PDT affects the extracellular matrix (ECM) of the aortic aneurysms, cross-sections of the aneurysms of the above mice which have undergone AAA induction and concurrently treated with MB PDT and the respective controls were stained with Verhoeff-Van Gieson (VVG) for elastin, Massons Trichrome for collagen and CD3 antibody for T-cells and CD68 antibody for macrophages for immune cell infiltration (FIG. 2A). […] Similarly, a compensatory effect of collagen expression into the elastin layer was observed (pointed by arrows) after PDT treatment compared to both vehicle-treated positive controls and sham controls. […] To assess if T-cells and macrophage infiltration is modulated in aneurysms upon treatment with MB PDT, the aneurysm cross-sections were stained for CD3 and CD68, markers for T-cells and macrophages, respectively. CD3 and CD68 staining were reduced after MB PDT treatment compared to vehicle treated controls (FIG. 2A). […] To confirm if there is an improvement in elastin degradation, clinical scoring as per an established protocol was performed by blinded investigators. […] To assess if this benefit on elastin degradation and immune cell infiltration was due to any systemic decrease in circulating cytokine levels known to be associated with aneurysm growth, cytokines such as IL-1B, IL-6 and IL-10, serum cytokine levels were measured.
Fresh tissue was fixed in 10% neutral buffered formalin (Azer Scientific, PFNBF-90) for 24 hours before being transferred to 70% EtOH. […] After paraffin embedding, sections were cut at 5 um for staining (AML Laboratories). Sections were then stained with H&E (VWR 95057-844, 95057-848), Van Gieson (Statlab Medical Products, KTVELLT), and Masson's Trichrome (CP Lab Chemicals, TRM-500). For IHC, standard immunohistochemistry procedures for 5 μm-thick aorta sections were used. In brief, after deparaffinization, endogenous peroxidase activity was quenched by placing the slides into 3% hydrogen peroxide (H2O2) for 10 min. Sections were immersed in preheated 10 mM citric acid (VWR., Radnor, PA., USA), pH 6.0, for 30 min and cooled in cold water. Sections were then blocked in 5% goat serum (Vector Laboratories, Burlingame, Calif., USA) for 20 min before being incubated overnight at 4° C. in a solution of rabbit anti-CD3 (0.4 μg/ml; ab5690; Abcam, Cambridge, MA., USA) antibody, rabbit anti-CD31 (ERP1729; 0.4 μg/ml; ab182981; Abcam) antibody, rabbit alpha smooth muscle Actin (SMA; 0.067 μg/ml; ab5694; Abcam), rabbit anti-CD68 (ERP23917; 2.0 μg/ml; ab283667; Abcam), and rabbit anti-Interleukin-1 receptor type 1 (IL1R1; 2.0 μg/ml; PAS-98766; Thermo Fisher, Eugene, OR., USA) in PBS. The next day, the sections were exposed to the biotinylated biotinylated goat-anti-rabbit IgG secondary antibody (15 μg/ml; Vector Laboratories) in PBS for 1 h followed by avidin-biotin complex for 1 h (1:200, ABC; Vector Laboratories). The reactions were visualized with 3,3′-diaminobenzidine (Millipore-Sigma) for 10 min and counterstained with Gill's Haematoxylin (Thermo Scientific) for 30 seconds. Finally, the sections were dehydrated, cleared in xylene and cover slipped. […]
For quantification of elastin using Van Gieson, an elastin scoring guide was used. […]

Series [3] has as its system IL-1B, IL-6 and IL-10. Put plainly: Serum cytokine ELISAs after MB PDT. The format is in vivo, mice. Conditions: MB PDT vs controls. The source says: The formation and progression of AAA can be characterized by the degradation of the extracellular matrix (ECM) and the concurrent infiltration of immune cells into the aortic wall. To assess if MB PDT affects the extracellular matrix (ECM) of the aortic aneurysms, cross-sections of the aneurysms of the above mice which have undergone AAA induction and concurrently treated with MB PDT and the respective controls were stained with Verhoeff-Van Gieson (VVG) for elastin, Massons Trichrome for collagen and CD3 antibody for T-cells and CD68 antibody for macrophages for immune cell infiltration (FIG. 2A). […] Similarly, a compensatory effect of collagen expression into the elastin layer was observed (pointed by arrows) after PDT treatment compared to both vehicle-treated positive controls and sham controls. […] To assess if T-cells and macrophage infiltration is modulated in aneurysms upon treatment with MB PDT, the aneurysm cross-sections were stained for CD3 and CD68, markers for T-cells and macrophages, respectively. CD3 and CD68 staining were reduced after MB PDT treatment compared to vehicle treated controls (FIG. 2A). […] To assess if this benefit on elastin degradation and immune cell infiltration was due to any systemic decrease in circulating cytokine levels known to be associated with aneurysm growth, cytokines such as IL-1B, IL-6 and IL-10, serum cytokine levels were measured. […]

The nature of series [4]: Tissue rigidity assay (forceps test), healthy mouse aortic tissue ex vivo. Set-up: species or system mice. The settings on record: MB PDT ex vivo. How it is done: (§1) (FIG. 7A). The stiffness maximized at 120 mins exposure for mouse tissue. […] To assess if this benefit of MB PDT on mechanical strength is true in a pathological setting, MB PDT treatment was done of on mouse aneurysms in vivo and the stiffness was assessed ex vivo (FIG. 7C).
(§2) Mouse aneurysms and aortic tissue were treated with MB PDT and vehicle in vivo and ex vivo.

The subject of series [5] is established AAAs. Put plainly: MB PDT on pre-established and progressive aneurysms 21 days after induction surgery. Format: in vivo, mice. How it is done:
The photosensitizer dye methylene blue (M291-100) was used for photodynamic therapy treatment (MB-PDT). MB-PDT was applied at two time points during the experiment. To test the effect of MB-PDT on AAA formation, MB-PDT was done directly after the PPE saline wash (PODO). To investigate the effect of MB-PDT on AAA growth, Laparotomy and MB-PDT was performed 21 days postoperatively, covering the whole aneurysm (POD21). MB-PDT involves applying 10 ul of 10:1 MB Solution in DPBS (M291-100:21-030-CV) topically to the whole aneurysm, which was carefully dissected from surrounding tissue. Gauze was placed on either side of the aneurysm to absorb excess MB. The aneurysm was then irradiated for 25 min at an irradiance of 30 mW/cm^2 and fluence of 45 J/cm^2 (660 nm LED, Thor M660L4). Throughout the course of irradiation, 5 ul of MB was applied to the aneurysm every 2.5 min to prevent the tissue from drying out. After irradiation, the MB was washed with two changes of sterile saline. For the MB only group, the total amount of MB was applied topically to the aneurysm for five minutes and washed. For the light only group, the aneurysm was irradiated for 25 min, with 5 ul of sterile saline applied every 2.5 min to prevent tissue desiccation. For POD21 positive controls, a laparotomy was performed with no additional treatment.
Aneurysm size was tracked by weekly ultrasound surveillance.
In certain instances, AAA often goes undiagnosed or is diagnosed late, thus it is important to know if MB PDT can not only prevent AAA formation but also reduce or arrest progressive aneurysm growth. To evaluate the efficacy of MB PDT to inhibit the progression of AAA, MB PDT was administered to mice with pre-established and progressive aneurysms 21 days after the initial aneurysm induction surgery with elastase. […] Similar to the measurements done in the study of MB PDT upon AAA induction in FIG. 1, the maximum aortic diameters were measured using ultrasound, averaging anterior-posterior (AP) and transverse (TRV) dimensions for accuracy. […]

Series [6] is described as follows: Ex vivo elastase degradation assay with VVG staining. Also on record: species or system pigs. The settings on record: MB PDT 20 min irradiance of 150 mW/cm^2, before recombinant elastase; vs Veh only. How it is done:
Human and porcine aorta were thawed from −80 C to RT. Tissue was then cut into ~1 cm×1 cm squares and briefly rinsed with HBSS. Tissues were then split into two groups: control and PDT. Control tissues were kept in HBSS at RT for one hour, and treated tissues were subjected to 150 mW NIR light for 20 mins in 100 μg/ml methylene blue, with the lumen side facing the light. Then each group was further split into two groups, no elastase and elastase treatment. Treatment involved a 2 hour incubation at 37 C in 10% Porcine Pancreatic Elastase (E1250-25 MG). After treatment all tissues were briefly rinsed, dried on a paper towel, and frozen in OCT. Tissue was sectioned at 10 μm by cryotome for the cross-section and stained using Van Gieson (Statlab KTVELLT). Images were taken at 20× and 100× on a Keyence BZ-X700 Fluorescence Microscope.
To assess if MB PDT can protect aortic tissue from elastase-induce extracellular matrix degradation, aortic tissue were procured from pigs and subjected to MB PDT (20 min irradiance of 150 mW/cm^2) or Veh only treatment ex vivo before recombinant elastase treatment. Comparative analysis of the cross-sections of these tissues were sought to ascertain the consistency of PDT's protective effects across different biological species. […]

Series [7] concerns the target T1, Recombinant Tropoelastin (Homo sapiens, UniProt P15502).
T1 sequence (P15502 27-786): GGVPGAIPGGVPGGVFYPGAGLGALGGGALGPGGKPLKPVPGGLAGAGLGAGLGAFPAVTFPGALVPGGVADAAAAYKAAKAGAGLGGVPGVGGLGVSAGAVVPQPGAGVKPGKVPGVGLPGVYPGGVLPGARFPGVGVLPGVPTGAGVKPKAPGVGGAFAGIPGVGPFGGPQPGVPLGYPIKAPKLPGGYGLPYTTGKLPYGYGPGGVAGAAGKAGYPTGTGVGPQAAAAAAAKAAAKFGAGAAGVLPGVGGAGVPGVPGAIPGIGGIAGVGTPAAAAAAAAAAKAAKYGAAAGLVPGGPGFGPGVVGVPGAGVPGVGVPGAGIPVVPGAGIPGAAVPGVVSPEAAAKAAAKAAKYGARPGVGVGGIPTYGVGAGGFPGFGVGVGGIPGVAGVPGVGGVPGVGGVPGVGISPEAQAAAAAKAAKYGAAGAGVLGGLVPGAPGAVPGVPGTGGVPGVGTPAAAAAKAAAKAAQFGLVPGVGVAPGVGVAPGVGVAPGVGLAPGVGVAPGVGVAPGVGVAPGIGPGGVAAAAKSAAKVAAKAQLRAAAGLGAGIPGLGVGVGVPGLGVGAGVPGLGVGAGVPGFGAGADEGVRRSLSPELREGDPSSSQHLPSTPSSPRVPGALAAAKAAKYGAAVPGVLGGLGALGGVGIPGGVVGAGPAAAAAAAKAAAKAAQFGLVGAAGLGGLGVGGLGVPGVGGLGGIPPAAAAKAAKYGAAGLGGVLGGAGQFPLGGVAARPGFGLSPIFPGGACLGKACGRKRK
Put plainly: CML levels in recombinant tropoelastin treated with MB PDT. The format is biochemical. The settings on record: MB PDT vs untreated tropoelastin and methylene blue without light.

Series [8] is described as follows: Tissue rigidity assay, porcine aorta ex vivo.
The subject of series [9] is mouse aneurysms. The series can be described thus: Tissue rigidity assay, mouse aneurysms treated in vivo, stiffness assessed ex vivo. The settings on record: post-MB PDT in vivo vs vehicle treatment controls. How it is done:
as §1, §2

[10] abbreviates: after MB PDT vs vehicle treated controls.

Turning to `CN(C)c1ccc2nc3ccc(N(C)C)cc3[s+]c2c1` [MB, methylene blue], the CML modification levels result in series [1] is on record as “significant increase”. Further, in [2] (MB PDT treated group), the “elastin degradation, clinical scoring by blinded investigators” value is “trend towards improvement”. In addition, in series [2] (setting [10]), the “CD3 staining (T-cells)” value is “reduced”, the “CD68 staining (macrophages)” value is listed as “reduced” and the “elastin degradation (VVG staining)” value is recorded as “reduction of elastin degradation”. In series [2] (after PDT vs vehicle treated controls and sham mice), the “collagen degradation in the adventitia (Massons Trichrome)” value was “less collagen degradation”. The “serum cytokine levels (IL-1B, IL-6, IL-10)” value in series [3] was “No significant differences”. Moreover, in series [4], the “light exposure at which stiffness maximized” value stood at 120 min and the “vascular stiffness (forceps test)” value is given as “increased with duration of light exposure”. Also, the “aneurysm diameter on week 9” value in [5] (MB PDT on day 21, vs vehicle treated group) is on record as “decrease”. Further, the “enlargement of established AAAs (weekly ultrasound)” value in series [5] (MB PDT on day 21 post-induction, vs vehicle-treated controls) is on record as “significantly reduced”. The “morphological images and micrometric measurements of AAAs” value in series [5] (treated vs vehicle) was “marked differences”. Also, the “resistance to elastase-induced ECM degradation (VVG elastin staining)” value in [6] was “significant resistance”. Further, the CML levels entry in series [7] is recorded as “significant increase”. The “stiffness benefit in porcine aorta” value in [8] (MB PDT, exposure requirement higher, visually less striking) is recorded as “consistent”. Further, in series [8] (porcine aorta after MB PDT, more resistance at higher light intensity (60 mW versus 120 mW)), the “degradation on incubation with recombinant elastase” value is listed as “resistant to degradation”. Also, the “stiffness of the aneurysm” value in [9] is reported as “clear improvement”.
